What is called pEC50 is the EC50 on a negative log10 scale, so that one unit is a factor of ten. The term pIC50 denotes −log10 of the IC50, conventionally taken in molar units. As a reminder, the inhibition is the change of the read-out against control, counted positive when it falls.

Data on four molecules can be found in ChEMBL document CHEMBL1240317, “Probing cell-division phenotype space and Polo-like kinase function using small molecules” (Nat Chem Biol, 2006).

The test system of test [1] is BSC-1. Kind of test: Induction of deffects in mitotic spindle in african green monkey BSC1 cells at 20 uM after 4 hrs by immunocytochemistry. In kind it is functional, cell-based. Conditions: Chlorocebus aethiops.
Test [2] deals with BSC-1. The test can be described thus: Induction of monopolar mitotic spindles in african green monkey BSC1 cells assessed as kinesin-5 (Eg5) inhibition at 100 uM after 4 hrs. In kind it is functional, cell-based. Conditions: Chlorocebus aethiops.
Test [3] relates to BSC-1. The test can be described thus: Antimitotic activity against african green monkey BSC1 cells assessed as induction of normal spindles at 2.5 uM by immunofluorescence microscopy. Conditions: Chlorocebus aethiops. The class given is functional, cell-based.
The test system of test [4] is BSC-1. Kind of test: Antimitotic activity against african green monkey BSC1 cells assessed as induction of monopolar spindles and two separated astral microtubule array at 20 uM by immunofluorescence microscopy. The class given is functional, cell-based. Conditions: Chlorocebus aethiops.
The test system of test [5] is BSC-1. The test can be described thus: Induction of monopolar mitotic spindles in african green monkey BSC1 cells assessed as percentage of monopolar cells with two centrosomes at 20 uM after 4 hrs. The class given is functional, cell-based. The note with it: Chlorocebus aethiops.
Test [6] deals with BSC-1. The test can be described thus: Antimitotic activity against african green monkey BSC1 cells assessed as induction of monopolar spindles by immunofluorescence microscopy. The class given is functional, cell-based. The note with it: Chlorocebus aethiops.
For test [7], the system named is PtK2. Kind of test: Induction of monopolar mitotic spindles in rat kangaroo PtK2 cells expressing GFP-labeled alpha-tubulin at 6.3 uM after 4 hrs. The note with it: Potorous tridactylus. The class given is functional, cell-based.
In test [8] the test system is BSC-1. Kind of test: Induction of monopolar mitotic spindles in african green monkey BSC1 cells assessed as percentage of monopolar cells with two centrosomes at 5 uM after 4 hrs. The class given is functional, cell-based. The note with it: Chlorocebus aethiops.
In test [9] the test system is PtK2. Kind of test: Induction of mitotic index in rat kangaroo PtK2 cells expressing GFP-labeled alpha-tubulin after 4 hrs. The class given is functional, cell-based. The note with it: Potorous tridactylus.
Test [10] concerns the target T1, Serine/threonine-protein kinase PLK1 (Homo sapiens, UniProt P53350). The test can be described thus: Inhibition of recombinant polo-like kinase 1 activity by SDS-PAGE.
The test system of test [11] is PtK2. Kind of test: Inhibition of Aurora kinase activity in rat kangaroo PtK2 cells assessed as histone H3 phosphorylation at 6.3 uM after 1 hr by quantitative fluorescence. In kind it is cell-based. Conditions: Potorous tridactylus.
For test [12], the system named is U2OS. Kind of test: Induction of monopolar spindles and reduction in gamma-tubulin at the centrosomes in human U2OS cells at 25 uM after 4 hrs by immunofluorescence. In kind it is functional, cell-based.
Test [13] has as its system PtK2. Kind of test: Induction of monopolar mitotic spindles in rat kangaroo PtK2 cells expressing GFP-labeled alpha-tubulin after 4 hrs. Conditions: Potorous tridactylus. In kind it is functional, cell-based.
Test [14] deals with BSC-1. The test can be described thus: Induction of reduced mitotic index in african green monkey BSC1 cells at 20 uM after 4 hrs by immunocytochemistry. Conditions: Chlorocebus aethiops. In kind it is functional, cell-based.
In test [15] the test system is BSC-1. Kind of test: Antimitotic activity against african green monkey BSC1 cells assessed as induction of monopolar spindles at 20 uM by immunofluorescence microscopy. The class given is functional, cell-based. The note with it: Chlorocebus aethiops.
The target of test [16] is T1, Serine/threonine-protein kinase PLK1. Kind of test: Inhibition of recombinant polo-like kinase 1 activity at 100 nM by SDS-PAGE.
Test [17] relates to PtK2. The test can be described thus: Inhibition of polo-like kinase 1 activity in rat kangaroo PtK2 cells expressing GFP-labeled alpha-tubulin assessed as V-shaped chromosome at 6.3 uM by spinning disk confocal microscopy in presence of 20 uM MG132. The class given is cell-based. The note with it: Potorous tridactylus.
The subject of test [18] is PtK2. The test can be described thus: Inhibition of polo-like kinase 1 activity in rat kangaroo PtK2 cells expressing GFP-labeled alpha-tubulin assessed as shortening of chromosome associated microtubule fibres at 20 uM by spinning disk confocal microscopy in presence of 20 uM MG132. In kind it is cell-based. Conditions: Potorous tridactylus.
Test [19] deals with PtK2. Kind of test: Inhibition of polo-like kinase 1 activity in rat kangaroo PtK2 cells expressing GFP-labeled alpha-tubulin assessed as interkinetochore distance at 6 uM after 45 mins. The note with it: Potorous tridactylus. In kind it is cell-based.
In test [20] the test system is PtK2. The test can be described thus: Change in microtubule dynamics in rat kangaroo PtK2 cells expressing GFP-labeled alpha-tubulin by replacing with PLK inhibitor- free medium. In kind it is functional, cell-based. Conditions: Potorous tridactylus.
Test [21] deals with PtK2. The test can be described thus: Inhibition of polo-like kinase 1 activity in rat kangaroo PtK2 cells expressing GFP-labeled alpha-tubulin assessed as phosphorylation of Cdc25c at 6.3 uM after 1 hr by quantitative immunofluorescence. The class given is cell-based. The note with it: Potorous tridactylus.
For test [22], the system named is PtK2. The test can be described thus: Inhibition of polo-like kinase 1 activity in rat kangaroo PtK2 cells expressing GFP-labeled alpha-tubulin assessed as stable microtubule bundles at 6.3 uM at 20 sec time interval for 5 min by spinning disk confocal microscopy. The class given is cell-based. Conditions: Potorous tridactylus.
Test [23] concerns U2OS. The test can be described thus: Induction of monopolar spindles and reduction in gamma-tubulin at the centrosomes in human U2OS cells at 50 uM after 4 hrs by immunofluorescence. In kind it is functional, cell-based.
The test system of test [24] is PtK2. The test can be described thus: Inhibition of polo-like kinase 1 activity in rat kangaroo PtK2 cells expressing GFP-labeled alpha-tubulin assessed as shortening of chromosome associated microtubule fibres at 6.3 uM by spinning disk confocal microscopy in presence of 20 uM MG132. The class given is cell-based. The note with it: Potorous tridactylus.
For test [25], the system named is PtK2. Kind of test: Antimitotic activity in rat kangaroo PtK2 cells expressing GFP-labeled alpha-tubulin in presence of monastrol assessed as cells remained in mitosis at 6 uM after 90 mins by phase-contrast microscopy. Conditions: Potorous tridactylus. In kind it is functional, cell-based.
Test [26] has as its system BSC-1. Kind of test: Antimitotic activity against african green monkey BSC1 cells assessed as induction of sphere like organization at 2.5 uM by immunofluorescence microscopy. Conditions: Chlorocebus aethiops. The class given is functional, cell-based.
Test [27] has as its system PtK2. Kind of test: Inhibition of polo-like kinase 1 activity in rat kangaroo PtK2 cells expressing GFP-labeled alpha-tubulin assessed as V-shaped chromosome at 20 uM by spinning disk confocal microscopy in presence of 20 uM MG132. Conditions: Potorous tridactylus. In kind it is cell-based.
The subject of test [28] is PtK2. Kind of test: Inhibition of polo-like kinase 1 activity in rat kangaroo PtK2 cells expressing GFP-labeled alpha-tubulin assessed as phosphorylation of Cdc25c at centrosomes after 1 hr by quantitative immunofluorescence. In kind it is cell-based. Conditions: Potorous tridactylus.
For test [29], the system named is PtK2. The test can be described thus: Inhibition of polo-like kinase 1 activity in rat kangaroo PtK2 cells expressing GFP-labeled alpha-tubulin assessed as interkinetochore distance at 33 uM after 45 mins. Conditions: Potorous tridactylus. In kind it is cell-based.
The subject of test [30] is PtK2. The test can be described thus: Inhibition of polo-like kinase 1 activity in rat kangaroo PtK2 cells expressing GFP-labeled alpha-tubulin assessed as phosphorylation of Cdc25c at 20 uM after 1 hr by quantitative immunofluorescence. The class given is cell-based. Conditions: Potorous tridactylus.
Test [31] relates to PtK2. The test can be described thus: Inhibition of Aurora kinase activity in rat kangaroo PtK2 cells assessed as histone H3 phosphorylation at 25 uM after 1 hr by quantitative fluorescence. The class given is cell-based. Conditions: Potorous tridactylus.
Test [32] concerns PtK2. Kind of test: Induction of monopolar mitotic spindles in rat kangaroo PtK2 cells expressing GFP-labeled alpha-tubulin at 20 uM after 4 hrs. In kind it is functional, cell-based. Conditions: Potorous tridactylus.
Test [33] relates to PtK2. The test can be described thus: Antimitotic activity in rat kangaroo PtK2 cells expressing GFP-labeled alpha-tubulin in presence of monastrol assessed as cells remained in mitosis at 20 uM after 90 mins by phase-contrast microscopy. The class given is functional, cell-based. Conditions: Potorous tridactylus.
Test [34] deals with PtK2. Kind of test: Inhibition of polo-like kinase 1 activity in rat kangaroo PtK2 cells expressing GFP-labeled alpha-tubulin assessed as interkinetochore distance at 20 uM after 45 mins. In kind it is cell-based. The note with it: Potorous tridactylus.

pEC50, pIC50: −log10 of the molar value. Active and inactive are the calls of the source. Unless noted, the calls are words filed in the database; no cut-off is given here.

T1 sequence (P53350 whole entry): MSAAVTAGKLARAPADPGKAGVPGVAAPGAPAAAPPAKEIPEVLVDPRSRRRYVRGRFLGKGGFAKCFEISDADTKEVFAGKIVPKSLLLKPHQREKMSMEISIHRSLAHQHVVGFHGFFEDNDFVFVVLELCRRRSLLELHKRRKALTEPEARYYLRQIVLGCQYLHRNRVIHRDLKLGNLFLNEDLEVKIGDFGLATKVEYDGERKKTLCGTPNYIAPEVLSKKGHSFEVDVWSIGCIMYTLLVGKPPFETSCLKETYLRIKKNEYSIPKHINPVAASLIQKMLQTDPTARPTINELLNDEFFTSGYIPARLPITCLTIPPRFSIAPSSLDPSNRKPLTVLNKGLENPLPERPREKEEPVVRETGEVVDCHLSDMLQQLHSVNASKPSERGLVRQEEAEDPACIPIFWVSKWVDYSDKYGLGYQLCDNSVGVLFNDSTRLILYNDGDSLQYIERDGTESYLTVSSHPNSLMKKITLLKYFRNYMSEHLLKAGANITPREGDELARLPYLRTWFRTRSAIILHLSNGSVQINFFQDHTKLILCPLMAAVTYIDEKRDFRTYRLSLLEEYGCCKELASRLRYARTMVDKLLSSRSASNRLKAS

For `c1cc(Nc2ccc3c(c2)CCC3)nc(Nc2ccc3ncsc3c2)n1`, the result in test [1], in [2], in [3], in test [4] and in test [5] was Active. Besides, the negative-log EC50 (pEC50) in test [6] was 4.52.
Regarding `CC(=O)Nc1ccc(Nc2ncc([N+](=O)[O-])c(Nc3ccccc3C(=O)c3ccccc3)n2)cc1`, the result in test [7], in test [8], in test [2], in test [12], in test [14] and in [15] was Active. The result in test [20], in test [23], in [25] and in test [26] was Active. The Activity result in test [9], in test [13] and in test [28] was “Dose-dependent effect” in each case. The pIC50 in test [10] is 6.05. In [11], the inhibition is 20%. Also, the inhibition result in [16] is “inactive”. For the same molecule, the inhibition result in test [17], in [18], in test [21], in [22], in [24] and in test [27] was “Active” each time. In test [19], the interkinetochore distance is 1.9 µm. Besides, the negative-log EC50 (pEC50) in test [6] was 5.30.
With `COC(=O)Nc1nc2cc(C(=O)c3cccs3)ccc2[nH]1`, the interkinetochore distance in test [29] stood at 1.4 µm.
For `N#Cc1cc([N+](=O)[O-])c2sc(C(N)=O)[n+]([O-])c2c1`, the Activity entry in test [9], in test [13] and in [28] was “Dose-dependent effect” throughout. The negative-log IC50 (pIC50) in test [10] is 5.10. Further, the inhibition result in test [30] is “Active”. Besides, the inhibition in test [31] is 20%. Moreover, the outcome in test [32], in test [12], in [33] and in test [23] was Active. Further, the interkinetochore distance in [34] is 2.3 µm.
